The text below walks through data of patent US10590094B2, “Aminothiazole derivatives useful as antiviral agents” (Innovative Molecules GmbH, priority 2016, dated 2020).

≈ marks a conversion by molar mass, not a printed value. Where “and” joins values, the source holds several entries; their conditions need not be identical. Identical values can stand only once. Some results are limits rather than exact numbers.

In series [1] the test system is HSV-1 ACV resistant. Put plainly: activity selectivity assay, ACV resistant HSV-1. Type of series: cell-based, Herpes simplex virus. To be noted: Human alphaherpesvirus 1, read-out: IC50 (HSV-1 ACV resistant). The protocol:
(§1) HSV (HSV-1 Walki, HSV-1F, HSV-2 MS, HSV clinical isolates and HSV resistant strains) was cultivated on Vero cells (ATCC CCL-81) under the following conditions: The cells were grown in M199 medium (5% foetal calf serum, 2 mM glutamine, 100 IU/mL penicillin, 100 μg/mL streptomycin) in cell culture bottles at 37° C. and 5% CO2. The cells were splitted twice per week (1:4). For the infection, the medium was removed, the cells were washed with Hank's solution, detached using 0.05% trypsin, 0.02% EDTA and incubacted at a density of 4×10^5 cells/mL under the above-mentioned conditions for 24 h. The medium was removed and the virus solution was added at an m.o.i of <0.05 in a volume of 2 mL per 175 cm^2 surface. The infected cells were incubated at 37° C., 5% CO2 for 1 h and then the medium was made up to a volume of 50 mL per 175 cm^2 bottle. […] The virus was released by freezing (−80° C.) and thawing (37° C.) the infected cultures twice. Cell debris was removed by centrifugation (300 g, 10 min, 4° C.) and the supernatant was frozen in aliquots at −80° C.
(§2) The antiviral action was determined using a patented (DE10235967 and WO2004/015416) and subsequently published activity selectivity assay (G. Kleymann et al. J. Biomol. Screen. 2004; 9:578) in 96- or 384-well mictrotitre plates using various cell lines of neuronal, lymphoid and epithelial origin, such as, for example, Vero (african green monkey kidney cells), MEF (murine embryonal fibroblasts), HELF (human embryonal fibroblasts), NT2 (human neuronal cell line) or Jurkat (human lymphoid T-cell line). The relevant experimental details of the above mentioned patent and publication to evaluate the antiviral activity of the invention (disclosed compounds) are described below.
(§3) The effect of the substances on the spreading of the cytopathogenic effect was determined in comparison to the reference compound acyclovir-sodium (Zovirax™), a clinically approved anti-herpes chemotherapeutic.
(§4) The compounds (50 mM stock solution dissolved in DMSO) are examined on microtitre plates (for example 96-well flat bottom cell culture plates) at a final concentration of 250 to 0.5 μM or, in case of potent antiviral compounds, 250 to 0.5 nM in 2 to 4 replications (4 to 2 substances per plate). Also examined are toxic and cytostatic effects or precipitation of the compounds. After an appropriate dilution of the compounds (1:2) on the microtitre plate in the appropriate medium (100 μL), a suspension of cells (50 μL, 1×10^4 cells per well), such as, for example of Vero cells in M199 (medium 199 with 5% foetal calf serum, 2 mM glutamine and optionally 100 IU/ml penicillin and 100 μg/ml streptomycin) or of MEF or HELF cells in EMEM (Eagle's Minimum Essential Medium with 10% foetal calf serum, 2 mM glutamine and optionally 100 IU/mL penicillin and 100 μg/mL streptomycin), or of NT2- and Jurkat cells in DMEM (([…] glucose plus pyridoxin) with 10% foetal calf serum, 2 mM glutamine, 1 mM sodium pyruvate, non-essential amino acids and optionally 100 IU/mL penicillin and 100 μg/mL streptomycin) is added to each well and the cells in the relevant wells are infected with the appropriate amount of virus (HSV-1 or HSV-2 having an m.o.i (multiplicity of infection) of 0.0025 for Vero, HELF and MEF cells and an m.o.i. of 0.1 for NT2 and Jurkat cells). The plates are then incubated at 37° C. in a cell CO2 incubator (5% CO2) for several days. After this time, the cell lawn of, for example, Vero cells in the substance-free virus controls, starting from 25 infections centres, is completely destroyed or lysed by the cytopathogenic effect (CPE) of the Herpes viruses (100% CPE). The plates are initially evaluated visually using a microscope and then analysed using a fluorescent dye. To this end, the cell supernatant of all wells of the MTP is aspirated and the wells are filled with 250 μL PBS (phosphate buffered saline) wash solution. […]

Series [2] relates to HSV-1. The experiment in a line: activity selectivity assay, HSV-1 infected Vero cells (cytopathogenic effect, fluorescein diacetate readout). Type of series: cell-based, Herpes simplex virus. Conditions: Human alphaherpesvirus 1. Here is the method: as §1, §2, §3, §4
In general terms: Protection from cytopathic effect is a common read-out in antiviral testing.

Series [3] relates to HSV-2. The experiment in a line: activity selectivity assay, HSV-2 infected Vero cells. Type of series: cell-based, Herpes simplex virus. To be noted: Human alphaherpesvirus 2. Here is the method: as §1, §2, §3, §4
Series [4] deals with Human Carboanhydrase II (Homo sapiens, UniProt P00918). Put plainly: carbonic anhydrase activity assay (pH indicator method). Type of series: biochemical. Here is the method:
Carbonic anhydrase II activity and its respective inhibition was performed according to R. Iyer et al. J. Biomol. Screen.
A protocol for determination of the carbonic anhydrase enymatic activity at rt using the pH indicator method is described below:
1 μL inhibitor (50 mM stock solution in DMSO) is diluted to a final test concentration ranging from 100 μM down to 1 nM (or 1 μL water in controls) and incubated for 2 min with 0.5 to 2 EU human […] (180 U/mg) in 400 μL water and 200 μL phenol red indicator solution (20 mg/L). An enzymactic unit (EU) is defined as an amount which doubles the non catalyzed rate. […] The time to colour change (pH 7.2) is determined with a microchronometer or stop watch.
The percentage of inhibition is calculated as described below: (time to color change without enzyme time to color change with enzyme and inhibitor)/(time to color change without enzyme time to color change with enzyme).

Series [5] is described as follows: pharmacokinetics in male mice strain C57BL/6J. Type of series: in vivo. Conditions: mouse. Here is the method:
Pharmcokinetic parameters were determined for Example 3 in male mice strain C57BL/6J at an intraveneous (i.v.) dose of 5 mg/kg (5% DMSO in heterologous plasma, 2.5 ml/kg) and an oral dose (p.o) of 10 mg/kg (DMSO/0.5% HPMC (5:95), 5 ml/kg). […] Significant concentrations in the brain of treated mice (2-3 μM, 1000 ng compound/g brain) were detected 6 h post administration at an oral dose of 10 mg/kg.

Series [6] concerns HSV-1. The experiment in a line: HSV-1 intranasal infection mouse model, survival. Type of series: in vivo. To be noted: Human alphaherpesvirus 1, inhaled or nasal, 120 h; female BALB/ABom mice, intranasal HSV-1, treatment for 5 days; read-out: ED50 (dose at which 50% of the infected animals survive). The protocol: Animal experiments were performed according to patent WO2001/047904 or subsequent publications (U. A. K. Betz et al. Antimicrob. Agents Chemother. 2002; 46:1766 or G. Kleymann et al. Nat. Med. 2002; 8:392). The relevant experimental details of the above mentioned patent and publication to evaluate the antiviral activity of the invention (disclosed compounds) in-vivo (animal models) are described below.
6 week-old female mice, BALB/ABom strain were obtained from a commercial breeder.
The animals were anaesthetized with Et2O in a sealed glass vessel. 50 μL of a dilution of the virus stock (infection dose 5×10^4 PFU (Plaque forming units)) were introduced into the nose of the anaesthetized animals using a pipette. In 90 to 100% of the animals, this infection dose causes death by generalized infection with prominent respiratory and central-nervous symptoms on average after 5 to 8 days.
6 hours after infection animals were treated with doses of 0.1-150 mg/kg of body mass, 3 times per day at 7 am, 2 pm and 7 pm (tid) or 2 times per day at 7 am and 7 pm (bid) or once daily at 1 pm (od) for a period of 5 days. […] After the last administration, the animals were monitored further and the time of death was determined.

Series [7] is described as follows: aqueous solubility (PBS, pH 7.4), shake flask. Type of series: physicochemical. The protocol:
The aqueous solubility (PBS, pH 7.4) was determined at Eurofins, Cerep, Panlabs according to C. A. Lipinski et al. Adv. Drug Del. Rev. 1997, 46:3. Measurement of the aqueous solubility was performed according to Lipinski, C. A. et al. (1997), Adv. Drug Del. Rev., 46: 3-26. The relevant information from the literature is described below. […] In addition, chromatographic purity (%) was defined as the peak area of the principal peak relative to the total integrated peak area in the HPLC chromatogram of the calibration standard.

The IC50 is the midpoint of a concentration-inhibition curve. Consider `Nc1nc2c(ncn2COCCO)c(=O)[nH]1` [Acyclovir, reference compound], for which the IC50 in series [1] is > 25000 nM; in series [2], 500 to 3000 nM; in series [3], 500 to 3000 nM.
In general, bioavailability refers to the share of a dose that reaches the circulation, judged against a reference dose that is usually intravenous. By Tmax is commonly meant the time from dosing to the highest level. As usually defined, the half-life is how long it takes for the measured level to halve. Broadly, the ED50 is the dose at which the effect has come halfway, by size or by number of responders. In the case of `Cc1nc(N(C)C(=O)Cc2ccc(-c3cc(F)ccc3F)cc2)sc1S(=N)(N)=O` (stereo not shown) [Example 3, 2-(2′,5′-Difluoro-[1,1′-biphenyl]-4-yl)-N-methyl-N-(4-methyl-5-sulfamimidoylthiazol-2-yl)acetamide], the IC50 in series [1] was 5 to 50 nM; in series [4], > 5 µM; in series [2], 5 to 50 nM; in series [3], 5 to 50 nM. Also, the “carboanhydrase inhibition (IC50)” value in series [4] (text statement before Table 2) is listed as “no or reduced carbonic anhydrase inhibition”. Also, the concentration at 6 h in series [5] (male, C57BL/6J, brain, mice, 6 h post administration, oral dose of 10 mg/kg) is 2 µM to 3 µM and 1000 ng/g. Moreover, in series [5] (plasma, oral, male C57BL/6J mice, 10 mg/kg p.o. vs 5 mg/kg i.v.), the bioavailability worked out at 94%. The Tmax in series [5] (plasma, po, male C57BL/6J mice, 10 mg/kg p.o.) came to 1 h. In addition, the Cmax in series [5] (plasma, po, male C57BL/6J mice, 10 mg/kg p.o., read-out: maximal plasma concentration (cmax)) came out at 13.9 µM. Besides, the half-life in series [5] (plasma, male C57BL/6J mice, oral dose of 10 mg/kg, read-out: terminal half life (converted)) is ~3.5 h. In addition, in series [6], the ED50 was < 10 mg/kg. In addition, the solubility at 24 h in series [7] (PBS buffer, aqueous buffer, kinetic from dmso stock, pH 7.4, shake flask, 24 h incubation, RT, read-out: Solubility [μM] (PBS, pH 7.4, 200 μM Test concentration)) worked out at 16.2 µM (≈ 7.07 µg/mL). Besides, the “solubility in comparison to Example 87 (WO2001/047904)” value in series [7] (pH 7.4) is listed as “significantly increased solubility (at least one order of magnitude)”.
As to `Cc1nc(N(C)C(=O)Cc2ccc(-c3ccccn3)cc2)sc1S(=N)(N)=O` (stereo not shown) [Example 3-1, N-methyl-N-(4-methyl-5-sulfamimdoylthiazol-2-yl)-2-(4-(pyridin-2-yl)phenyl)acetamide], the IC50 in series [1], in series [2] and in series [3] was 5 to 50 nM each time.
Turning to `Cc1nc(N(C)C(=O)Cc2ccc(-c3cc(F)ccc3F)cc2)sc1[S+](C)[O-]` (stereo not shown) [Example 4, 2-(2′,5′-Difluoro-[1,1′-biphenyl]-4-yl)-N-methyl-N-(4-methyl-5-(methylsulfinyl)thiazol-2-yl)acetamide], the IC50 in series [1], in series [2] and in series [3] was 100 to 500 nM each time.
On to `Cc1nc(N(C)C(=O)Cc2ccc(-c3cc(F)ccc3F)cc2)sc1S(C)(=N)=O` (stereo not shown) [Example 7, 2-(2′,5′-Difluoro-[1,1′-biphenyl]-4-yl)-N-methyl-N-(4-methyl-5-(S-methylsulfonimidoyl)thiazol-2-yl)acetamide], for which the IC50 in series [1], in series [2] and in series [3] was 25 to 100 nM throughout.
In the case of `Cc1nc(N(C)C(=O)Cc2ccc(-c3cc(F)ccc3F)cc2)sc1P(=O)(O)O` [Example 9, (2-(2-(2′,5′-Difluoro-[1,1′-biphenyl]-4-yl)-N-methylacetamido)-4-methylthiazol-5-yl)phosphonic acid], the IC50 in series [1], in series [2] and in series [3] was 25000 to 100000 nM throughout.
In the case of `Cc1nc(N(C)C(=O)Cc2ccc(-c3cc(F)ccc3F)cc2)sc1S(=O)(=O)NC#N` [Example 12, N-(5-(N-Cyanosulfamoyl)-4-methylthiazol-2-yl)-2-(2′,5′-difluoro-[1,1-biphenyl]-4-yl)-N-methylacetamide], the concentration for half-maximal inhibition (IC50) in series [1], in series [2] and in series [3] was 100 to 1000 nM each time.
Take `Cc1nc(N(C)C(=O)Cc2ccc(-c3cc(F)ccc3F)cc2)sc1/S(C)=N\C#N` (stereo not shown) [Example 13, N-[5-(N-Cyano-S-methyl-sulfinimidoyl)-4-methyl-thiazol-2-yl]-2-[4-(2,5-difluorophenyl)phenyl]-N-methyl-acetamide]: the IC50 in series [1], in series [2] and in series [3] was 300 to 3000 nM in each case.
As to `Cc1nc(N(C)C(=O)Cc2ccc(-c3cc(F)ccc3F)cc2)sc1S(C)(=O)=NC#N` (stereo not shown) [Example 14, N-[5-(N-Cyano-S-methyl-sulfonimidoyl)-4-methyl-thiazol-2-yl]-2-[4-(2,5-difluorophenyl)phenyl]-N-methyl-acetamide], the IC50 in series [1], in series [2] and in series [3] was 1000 to 5000 nM in each case.
Turning to `CSc1sc(N(C)C(=O)Cc2ccc(-c3cc(F)ccc3F)cc2)nc1C` [Example P4b, 2-(2′,5′-Difluoro-[1,1′-biphenyl]-4-yl)-N-methyl-N-(4-methyl-5-(methylthio)thiazol-2-yl)acetamide], the IC50 in series [1], in series [2] and in series [3] was 2000 to 6000 nM throughout.
